In patent US5998173A, “Process for producing N-acetyl-D-glucosamine” (The University of Bristish Columbia, priority 1996, dated 1999):

Legend:
[1] = target: T1, Serratia marcescens QM B1466 chitobiase (EC 3.2.1.29) in culture supernatant (Serratia marcescens, UniProt Q54468); test: Chitobiase activity assay with pNP-NAG in the presence of N-acetyl-D-glucosamine (end-product inhibition, Eadie-Hofstee analysis); format: biochemical
T1 construct: assaying chitobiase activity in S. marcescens culture supernatant over a wide range of substrate concentrations; endogenous in cells; host or cells: Serratia marcescens QM B1466, grown on chitin; enzyme in culture supernatant, not purified
T1 sequence (Q54468 28-885): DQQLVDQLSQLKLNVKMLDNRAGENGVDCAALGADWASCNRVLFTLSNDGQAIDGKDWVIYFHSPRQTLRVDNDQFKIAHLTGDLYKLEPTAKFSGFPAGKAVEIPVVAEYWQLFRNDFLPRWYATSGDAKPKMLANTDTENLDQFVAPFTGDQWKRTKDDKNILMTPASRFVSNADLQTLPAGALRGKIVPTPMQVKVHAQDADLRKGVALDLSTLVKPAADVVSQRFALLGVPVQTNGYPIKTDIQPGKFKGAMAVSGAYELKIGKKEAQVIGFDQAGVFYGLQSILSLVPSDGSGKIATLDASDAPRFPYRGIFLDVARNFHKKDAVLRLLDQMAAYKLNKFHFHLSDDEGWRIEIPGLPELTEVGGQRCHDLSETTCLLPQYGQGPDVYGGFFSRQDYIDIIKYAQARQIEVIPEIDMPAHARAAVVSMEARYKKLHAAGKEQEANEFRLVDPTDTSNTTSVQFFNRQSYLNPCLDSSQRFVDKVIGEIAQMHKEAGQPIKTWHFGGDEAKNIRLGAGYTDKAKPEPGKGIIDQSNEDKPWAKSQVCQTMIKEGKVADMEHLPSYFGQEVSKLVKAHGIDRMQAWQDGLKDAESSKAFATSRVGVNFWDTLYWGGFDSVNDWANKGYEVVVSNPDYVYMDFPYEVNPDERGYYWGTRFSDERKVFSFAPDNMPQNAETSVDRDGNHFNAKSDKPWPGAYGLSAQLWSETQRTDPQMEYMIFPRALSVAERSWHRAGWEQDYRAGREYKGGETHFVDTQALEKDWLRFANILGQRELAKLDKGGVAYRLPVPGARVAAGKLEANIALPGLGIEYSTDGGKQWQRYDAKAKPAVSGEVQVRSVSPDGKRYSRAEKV
Excerpt: (§1) FIG. 15a illustrates assays of chitinase (.box-solid.) and chitobiase (.diamond-solid.) in the presence of increasing amounts of N-acetyl-D-glucosamine (NAG). The activity values are expressed as percentage of the initial uninhibited values ([NAG]=0).
FIG. 15b illustrates assays of chitobiase from S. marcescens crude extracts using a range of p-nitrophenyl N-acetyl-β-D-glucosaminide concentrations with or without the addition of a fixed amount of N-acetyl-D-glucosamine (NAG). (.box-solid.) 0.00 mM NAG; (.circle-solid.) 0.21 mM NAG; (Δ) 0.42 mM NAG; (.gradient.) 0.83 mM NAG; and (.diamond-solid.) 1.67 mM NAG.
Chitobiase activity was determined by measuring the amount of p-nitrophenolreleased when an aliquot of enzyme solution (culture supernatant) was incubated with an aqueous solution of p-nitrophenyl-N-acetyl-β-D-glucosamine (pNP-NAG) (Sigma). The buffer used in this assay was 85-mM Tris(hydroxymethylaminomethane)-malate, pH 7.0. […] The liberated p-nitrophenol was spectrophotometrically measured at 405 nm in an ELISA plate reader. […]
The nature of chitobiase inhibition by N-acetyl-D-glucosamine was determined by assaying chitobiase activity in S. marcescens culture supernatant over a wide range of substrate concentrations, with and without the addition of fixed amounts of N-acetyl-D-glucosamine. […]

[2] = system: Serratia marcescens QM B1466 chitinases (total chitinase activity, EC 3.2.1.14) in culture supernatant; test: Chitinase activity assay with pNP-(NAG)2 in the presence of increasing N-acetyl-D-glucosamine (end-product inhibition); format: biochemical; settings: 40-mM NAG in the assay media, p-nitrophenyl substrate analog, 10 min
Protocol: as §1
Chitinase activity was also determined by using the analog p-nitrophenyl-β-D-N,N'-diacetylchitobiose (pNP-(NAG)2) (Sigma). The assay was performed in triplicate using ELISA plates and contained 50 μL of 100 mM KH2 PO4 buffer containing 1-mM CaCl2 at pH 6.0, 50 μL of pNP(NAG)2 dissolved in nanopure water (400 μg/ml) and 20 μL of enzyme diluted in the same buffer. After 10 minutes of incubation samples were read at 405 nm using an ELISA plate reader. Blanks were used to discount any absorption due to the enzyme or pNP-(NAG)2 alone. The μmoles of p-nitrophenol released by the samples was calculated using a standard curve. Units of enzymatic activity were determined as the number of μmoles of p-nitrophenol released per minute under the assay conditions.
End-product inhibition was tested using p-nitrophenyl substrate-analogs to assay chitinase and chitobiase activities in the presence of increasing concentrations of N-acetyl-D-glucosamine (NAG). The results shown in FIG. 15a indicate that both activities in culture supernatant are inhibited by the end product (NAG). […]

CC(=O)N[C@H]1C(O)O[C@H](CO)[C@@H](O)[C@@H]1O (stereo partly drawn) [N-acetyl-D-glucosamine, 2-acetamido-2-deoxy-D-glucose]
inhibition at 40000 µM ([1]; 10 min, pH 7, 40-mM NAG in the assay media, p-nitrophenyl substrate analog, culture supernatant, read-out: chitobiase activity drop): 70%
Ki ([1]; noncompetitive inhibition, substrate p-nitrophenyl N-acetyl-β-D-glucosaminide, 0-1.67 mM NAG, calculated from Eadie-Hofstee analysis, read-out: inhibition constant Ki): 1 mM
total chitinase activity lost [2]: 30%
